Measured values published in patent US6583118B1, “Chondroprotective agents” (Kureha Chemical Industry Co., Ltd., priority 1993, dated 2003).

Experiments:
[1] = tested on: chondrocyte culture (derived from cartilage of rabbit shoulder and knee joints); assay: Effect of test compounds on proteoglycan depletion in chondrocyte culture (PMA-induced, GAG content); assay type: cell-based, rabbit (New Zealand white Rabbits); conditions: for Relative amount of GAG: control without PMA = 100
Protocol: The cartilages were sterilely extracted from the shoulder and knee joints of rabbits (New Zealand white Rabbits) (body weight of 1 to 1.5 kg). The cartilages were thoroughly washed with PBS (−) (free of Ca^2+, Mg^2+), Hanks' solution and 0.1% EDTA-PBS (−), and then cut into small segments (1 mm×1 mm×1 mm). After PBS (−) containing 0.1% EDTA was added, the segments were allowed to stand in an incubator of 37° C. for 30 minutes. Then, the segments were treated with a trypsin solution (0.25%) at 37° C. for one hour to remove the connective tissue adhered to the cartilage. After the supernatant had been removed, the cartilages were treated for about 2 to 2.5 hours in a Ham F-12 medium containing 10% fetal bovine serum (FBS) and 0.2% collagenase. Then, the collagenase solution was centrifuged (1500 r.p.m.), and the residual chondrocytes were washed twice with a Ham F-12 medium (chondrocyte culture medium) containing 10% FBS. Finally, the resulting suspension was adjusted so that the chondrocytes were suspended in the concentration of 3×10^5 cells/ml in the chondrocyte culture medium. The chondrocytes were seeded in an amount of 1 ml/well on 24-well plates. The chondrocytes became confluent after 4 days. The experiment were performed within two weeks after reaching the confluent stage.
The chondrocyte culture medium which had been used for cultivating the chondrocytes was removed from each well and 800 μl of fresh serum-free S-Clone medium containing 0.1% human serum albumin was added. Further, 100 μl of S-Clone medium containing the compounds to be tested (containing the compound in the concentration of 10 fold the final concentration; DMSO concentration=2.5%) was added. The chondrocytes were cultured in the presence of carbon dioxide (5%) and air (95%) for 2 hours. Then, the proteoglycan depleting agent, PMA (phorbol myristate acetate) (final concentration=0.1 μg/ml) was added into the culture medium of the chondrocytes.
Proteoglycan depletion was determined by the measurement of the glycosaminoglycan (major constituent of proteoglycan, hereinafter referred to as GAG) content following digestion of the chondrocyte matrix with papain.
After 2 days, the supernatant of the chondrocyte culture was removed. Then, 1 ml of 0.03 […] papaine solution was added to the remaining chondrocyte matrix layer and a reaction was performed at 65° C. for 1 hour to liberate the GAG from the matrix layer. The content of the GAG in the treated papaine solution was determined by the 1,9-dimethylmethylene blue method (refer to R. W. Farndale, Biochim. Biophys. Acta., Vol. 883, pp. 173 to 177, 1986). The GAG content in the chondrocyte matrix of the control test wherein the proteoglycan depleting agent was not added was shown as “100”, and the relative amount of the GAG of each experiment except the control test was calculated by following formula:
GAG relative amount (%)=(B/A)×100
wherein A represents the GAG content of the control tests wherein the proteoglycan depleting agent was not added, and B represents the GAG content wherein the proteoglycan depleting agents were added alone or the GAG content wherein the proteoglycan depleting agents and the compounds to be tested were added.
The GAG content is the value of the mean value ± standard error (n=3 to 6). For each of the compounds to be tested, the control test and the proteoglycan depleting test wherein the proteoglycan depleting agent was added were carried out and the results thereof are also shown. The significance was determined by Student's t-test with respect to the proteoglycan depleting test wherein the proteoglycan depleting agent was added.

BALB/c mice = assay: Observation for a week after oral administration to BALB/c mice; assay type: in vivo, mouse; conditions: 100 mg/kg
Protocol: The same results were obtained where hesperidin, acacetin, diosmetin, apigenin, luteolin, or kaempferol was administered.

Mouse = assay: Acute toxicity, mouse LD50; assay type: in vivo; conditions: intravenous injection
[2] = Acute toxicity, mouse LD50; assay type: in vivo; conditions: in vivo, oral administration
[3] = PMA 0.1 μg/ml + test compound 100 μM, chondrocyte matrix after 2 days, mean ± standard error (n=3 to 6)
[4] = PMA 0.1 μg/ml + test compound 100 μM
[5] = BALB/c mice (female, seven weeks old), oral

| Compound | GAG content [1, 3] | Relative amount of GAG [1, 4] | abnormalities observed for a week after administration (BALB/c mice; mouse, in vivo, po) | other results |
| --- | --- | --- | --- | --- |
| O=c1cc(-c2ccc(O)cc2)oc2cc(O)cc(O)c12 [No. 5, Apigenin] | 33.3 ± 0.7 µg/mL | (60.9) % | no abnormalities were observed |  |
| O=c1cc(-c2ccc(O)c(O)c2)oc2cc(O)cc(O)c12 [No. 8, Luteolin] | 28.6 ± 0.5 µg/mL | (52.2) % | no abnormalities were observed |  |
| COc1ccc(-c2cc(=O)c3c(O)cc(O)cc3o2)cc1 [No. 11, Acacetin] | 24.2 ± 0.3 µg/mL | (44.8) % | no abnormalities were observed |  |
| COc1ccc(-c2cc(=O)c3c(O)cc(O[C@@H]4O[C@H](CO[C@@H]5O[C@@H](C)[C@H](O)[C@@H](O)[C@H]5O)[C@@H](O)[C@H](O)[C@H]4O)cc3o2)cc1 [No. 12, Linarin] | 19.8 ± 0.7 µg/mL | (35.8) % |  |  |
| COc1ccc(-c2cc(=O)c3c(O)cc(O)cc3o2)cc1O [No. 13, Diosmetin] | 27.1 ± 0.7 µg/mL | (49.0) % | no abnormalities were observed |  |
| O=c1cc(-c2ccccc2)oc2cc(O)c(O)c(O)c12 [No. 15, Baicalein] | 7.67 ± 0.5 µg/mL | (68.3) % |  |  |
| O=c1c(O)c(-c2ccc(O)c(O)c2)oc2cc(O)ccc12 [No. 16, Fisetin] | 30.1 ± 0.9 µg/mL | (55.7) % |  | LD50 (Mouse): 180 mg/kg |
| O=c1c(O)c(-c2ccc(O)cc2)oc2cc(O)cc(O)c12 [No. 17, Kaempferol] | 30.5 ± 0.3 µg/mL | (55.7) % | no abnormalities were observed |  |
| O=c1c(O)c(-c2ccc(O)c(O)c2)oc2cc(O)cc(O)c12 [No. 22, Quercetin] | 31.0 ± 0.6 µg/mL | (55.3) % |  | LD50 [2]: 160 mg/kg |
| COc1ccc([C@@H]2CC(=O)c3c(O)cc(O)cc3O2)cc1O [No. 41, Hesperetin] | 28.7 ± 0.4 µg/mL | (48.6) % |  | abnormalities observed for a week after administration (BALB/c mice; [5]): no abnormalities were observed |
| COc1ccc([C@@H]2CC(=O)c3c(O)cc(O[C@@H]4O[C@H](CO[C@@H]5O[C@@H](C)[C@H](O)[C@@H](O)[C@H]5O)[C@@H](O)[C@H](O)[C@H]4O)cc3O2)cc1O [No. 42, Hesperidin] | 24.0 ± 0.6 µg/mL | (42.8) % |  | abnormalities observed for a week after administration (BALB/c mice; [5]): no abnormalities were observed |
| COc1ccc2c(c1)c(CC(=O)O)c(C)n2C(=O)c1ccc(Cl)cc1 [indometacin, Indometacin, reference compound] |  |  |  | Relative amount of GAG ([1]; PMA 0.1 μg/ml + indometacin 10 μM): (47.1) %; GAG content ([1]; PMA 0.1 μg/ml + indometacin 10 μM, mean ± standard error): 13.2 ± 0.6 µg/mL; Relative amount of GAG ([1]; PMA 0.1 μg/ml + indometacin 33 μM): (41.8) %; GAG content ([1]; PMA 0.1 μg/ml + indometacin 33 μM, mean ± standard error): 11.7 ± 0.8 µg/mL |
